For test [1], the system named is C-fibers in the trigeminal ganglion. To be noted: rat, in vivo.
Test [2] concerns Aδ-fibers in the trigeminal ganglion. To be noted: rat, in vivo.
Test [3] has as its system neurons in the trigeminal ganglion. The conditions noted are these: rat, in vivo.
On the set-up of test [4]: species or system human. To be noted: in vivo.
Details of test [5]: species or system human. The conditions noted are these: in vivo; for Development of post-traumatic syndrome after treatment within the first day after blast injury: sc.
Test [6] concerns trigeminovascular Aδ-nociceptors, high threshold (HT) neurons, C-fiber and wide dynamic range (WDR) neurons. The conditions noted are these: rat, in vivo.

Regarding onabotulinumtoxinA [BoNT-A], in test [1], the “Baseline firing rate, C-fibers” value came out at 0.7 spikes/sec and the “Effect on response to CSD in unmyelinated C-fibers” value is “inhibited the response to CSD”. For the same molecule, in test [2], the “Baseline firing rate, Aδ-neurons” value is listed as 0.7 spikes/sec and the “Effect on response to CSD in Aδ-neurons” value is “no significant difference”. Besides, the “Baseline firing rate prior to CSD” value in test [3] amounted to 0.7 Hz. In test [4], the “Outcome after treatment following 1 month of symptoms after head injury” value was “headaches are lessened in severity and frequency, they experience improved sleep and improved cognition”; the “Outcome after treatment promptly after head injury, before onset of symptoms” value was “continues to do well”. Moreover, in test [5], the “Outcome after treatment once symptoms had developed after blast injury” value was “headaches resolve a month after their treatment with decreased photophobia, dizziness, tinnitus and insomnia”; the “Development of post-traumatic syndrome after treatment within the first day after blast injury” value is recorded as “do not develop any features of a post-traumatic syndrome”.

For fremanezumab, in test [6], the “Activation of C-fiber and wide dynamic range (WDR) neurons” value was “not”; the “Activation of trigeminovascular Aδ-nociceptors and high threshold (HT) neurons” value is listed as “blocked the activation”.

B1: Galcanezumab (antibody, chains of the INN, looked up, V domains shown)
VH: QVQLVQSGAEVKKPGSSVKVSCKASGYTFGNYWMQWVRQAPGQGLEWMGAIYEGTGKTVYIQKFADRVTITADKSTSTAYMELSSLRSEDTAVYYCARLSDYVSGFGYWGQGTTVTVSS
VL: DIQMTQSPSSLSASVGDRVTITCRASKDISKYLNWYQQKPGKAPKLLIYYTSGYHSGVPSRFSGSGSGTDFTLTISSLQPEDFATYYCQQGDALPPTFGGGTKVEIK
As for B1, in test [5], the “Development of post-traumatic syndrome after treatment within the first day after blast injury” value is on record as “do not develop any features of a post-traumatic syndrome”.

The values are drawn from US20210128724A1 (priority 2019, published 2021).
